Key:
HeLa = assay: Cytotoxicity against human HeLa cells after 24 hrs by [3H]-thymidine incorporation assay; type: functional, cell-based
[1] = Cytotoxicity against human IGROV cells after 48 hrs by crystal violet staining based assay; type: functional, cell-based
[2] = Cytotoxicity against human T cells assessed as cell viability after 24 hrs by annexin V/propidium iodide staining based flow cytometric analysis
[3] = Cytotoxicity against human CLL cells after 24 hrs by annexin-V/PI staining based flow cytometry in presence of human plasma protein; type: functional, cell-based
[4] = Cytotoxicity against human CLL cells after 24 hrs by annexin-V/PI staining based flow cytometry in presence of fetal bovine serum; type: functional, cell-based
[5] = Cytotoxicity against human SJSA1 cells after 48 hrs by crystal violet staining based assay; type: functional, cell-based; conditions: SJSA-1, 48 h
[6] = Cytotoxicity against human […] cells after 48 hrs by crystal violet staining based assay; type: functional, cell-based
A-431 = assay: Cytotoxicity against human A431 cells after 48 hrs by crystal violet staining based assay; type: functional, cell-based; conditions: A-431, 48 h
[7] = Cytotoxicity against human B cells assessed as cell viability after 24 hrs by annexin V/propidium iodide staining based flow cytometric analysis
[8] = Cytotoxicity against human A3 cells after 48 hrs by crystal violet staining based assay; type: functional, cell-based; conditions: A3, 48 h
[9] = Cytotoxicity against human CLL cells after 24 hrs by annexin-V/PI staining based flow cytometry; type: functional, cell-based
[10] = Plasma protein binding in human by liquid chromatography-mass spectrometric analysis; type: ADME, cell-free
Plasma = assay: Metabolic stability in human plasma assessed as drug recovery; type: ADME, cell-free
[11] = Half life of compound at pH 5; type: physicochemical
[12] = Half life of compound in water at 25 deg C; type: physicochemical

`Cc1c(C)c2n(c1Br)[C@@H]1C[C@]3(O)[C@@H](NC(=O)N3C)[C@@H]1NC2=O` showed an IC50 (HeLa) of over 20000 nM.
Work on `Cc1ccn2c1C(=O)N[C@@H]1[C@H]2C[C@]2(O)[C@H]1NC(=O)N2C` yielded an IC50 (HeLa) of over 20000 nM.
For `CN1C(=O)N[C@H]2[C@@H]3NC(=O)c4ccc(Br)n4[C@@H]3C[C@]21O` [AGELASTATIN A], the IC50 [1] was 170 nM, the Activity [2] was “Toxic” and the IC50 [3] was 710 nM. The IC50 [4] was 930 nM, the IC50 [5] was 440 nM and the IC50 [6] was 320 nM. The IC50 (A-431) was 460 nM, the Activity [7] was “Toxic” and the IC50 [8] was 380 nM. It also gave an IC50 (HeLa) of 84 nM and an IC50 [9] of 710 nM.
`Cc1cc2n(c1Br)[C@@H]1C[C@]3(O)[C@@H](NC(=O)N3C)[C@@H]1NC2=O` gave an IC50 (HeLa) of 4530 nM and an IC50 [9] of 7120 nM.
With `C#CCCCO[C@@]12C[C@@H]3[C@@H](NC(=O)c4ccc(Br)n43)[C@@H]1NC(=O)N2C` the IC50 (HeLa) was over 20000 nM and the IC50 [9] was over 10000 nM.
For `CN1C(=O)N[C@H]2[C@@H]3NC(=O)c4cc(-c5ccccc5)c(-c5ccccc5)n4[C@@H]3C[C@]21O`, the IC50 (HeLa) was over 20000 nM and the IC50 [9] was over 10000 nM.
`CN1C(=O)N[C@H]2[C@@H]3NC(=O)c4cc(I)c(Br)n4[C@@H]3C[C@]21O` gave an IC50 (HeLa) of over 20000 nM.
Work on `CN1C(=O)N[C@H]2[C@@H]3NC(=O)c4cc(C#Cc5ccccc5)c(Br)n4[C@@H]3C[C@]21O` yielded an IC50 (HeLa) of over 20000 nM and an IC50 [9] of over 10000 nM.
For `CN1C(=O)c2ccc(Br)n2[C@@H]2C[C@]3(O)[C@@H](NC(=O)N3C)[C@@H]21` (racemic), the IC50 (HeLa) was over 20000 nM.
`CN1C(=O)N[C@H]2[C@@H]3NC(=O)c4cc(-c5ccccc5)c(Br)n4[C@@H]3C[C@]21O` gave an IC50 (HeLa) of over 20000 nM and an IC50 [9] of over 10000 nM.
`CN1C(=O)N[C@H]2[C@@H]3NC(=O)c4ccc(Br)n4[C@@H]3C[C@]21OCCCc1cn(CCCC(=O)NCc2ccccc2)nn1` showed an IC50 (HeLa) of over 20000 nM and an IC50 [9] of over 10000 nM.
In the case of `CN1C(=O)N[C@H]2[C@@H]3NC(=O)c4cc(Cl)c(Br)n4[C@@H]3C[C@]21O`, the IC50 [1] is reported as 260 nM, the Activity [2] is reported as “Toxic” and the IC50 [3] is reported as 2820 nM. For the same molecule, the PPB [10] was 46.5%, the IC50 [4] was 2650 nM and the IC50 [5] was 560 nM. For the same molecule, the IC50 [6] was 540 nM, the IC50 (A-431) was 340 nM and the Activity [7] was “Toxic”. It also gave an IC50 [8] of 470 nM, an IC50 [9] of 2820 nM and a Drug recovery (Plasma) of 102.1%.
`CN1C(=O)N[C@H]2[C@@H]3NC(=O)c4ccc(Br)n4[C@@H]3C[C@]21N` showed a t1/2 [11] of 170 h, an IC50 (HeLa) of 17000 nM and an IC50 [9] of over 30000 nM.
Molecule `CN1C(=O)N[C@H]2[C@@H]3NC(=O)c4cc(Br)c(Br)n4[C@@H]3C[C@]21O` has an IC50 [1] of over 1000 nM, an IC50 [5] of over 1000 nM and an IC50 [6] of over 1000 nM. For the same molecule, the IC50 (A-431) was over 1000 nM, the IC50 [8] was over 1000 nM and the IC50 (HeLa) was 7850 nM. The IC50 [9] was over 30000 nM.
Work on `CN1C(=O)N[C@H]2[C@@H]3NC(=O)c4c(Br)c(Br)c(Br)n4[C@@H]3C[C@]21O` yielded an IC50 (HeLa) of over 20000 nM and an IC50 [9] of over 10000 nM.
With `Cc1ccc2n1[C@@H]1C[C@]3(O)[C@@H](NC(=O)N3C)[C@@H]1NC2=O` the IC50 [1] was 310 nM, the IC50 [5] was over 1000 nM and the IC50 [6] was 280 nM. The IC50 (A-431) was over 1000 nM, the IC50 [8] was over 1000 nM and the IC50 (HeLa) was over 20000 nM. For the same molecule, the IC50 [9] was 9770 nM.
`Cc1c(Br)c(Br)n2c1C(=O)N[C@@H]1[C@H]2C[C@]2(O)[C@H]1NC(=O)N2C` showed an IC50 (HeLa) of over 20000 nM.
For `CC(=O)c1cc2n(c1Br)[C@@H]1C[C@]3(O)[C@@H](NC(=O)N3C)[C@@H]1NC2=O`, the IC50 (HeLa) was over 20000 nM and the IC50 [9] was over 10000 nM.
`CC(=O)CCO[C@@]12C[C@@H]3[C@@H](NC(=O)c4ccc(Br)n43)[C@@H]1NC(=O)N2C` showed an IC50 (HeLa) of 1720 nM, an IC50 [9] of 5740 nM and a half-life [12] of 16 h.

Reference: ChEMBL document CHEMBL3784975 (Bioorg Med Chem Lett, 2016)
